Measurements reported in PubChem BioAssay (NCI).
“And” between values parts separate entries of the source, which are not always exact repeats. Equal values may be shown once.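 Interpolation was linear, between the two tested concentrations surrounding the appropriate level; five concentrations were tested over 48 hours in 96-well plates. GI50 is the concentration that inhibits growth by half. At the TGI there is no net growth.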

Experiments:
Assay in all cases: inhibition of tumour cell growth, NCI panel, 48 h
[1] = system: ACHN renal
[2] = system: SK-MEL-2 melanoma
[3] = system: PC-3 prostate
[4] = system: UACC-62 melanoma
[5] = system: CCRF-CEM leukemia
[6] = system: COLO 205 colon
[7] = system: OVCAR-8 ovarian
[8] = system: U251 CNS
[9] = system: HS 578T breast
[10] = system: SR leukemia

Cc1nc2ccccn2c1NC(=O)NN1C(=O)CSC1c1ccc(Cl)cc1 (configuration not stated)
GI50 [1]: > 100 µM
TGI [1]: > 100 µM
GI50 [2]: > 100 µM
TGI [2]: > 100 µM
GI50 [3]: > 100 µM
TGI [3]: > 100 µM
GI50 [4]: > 100 µM
TGI [4]: > 100 µM
TGI [5]: 0.012 µM
GI50 [6]: > 100 µM
TGI [6]: > 100 µM
GI50 [7]: > 100 µM
TGI [7]: > 100 µM
GI50 [8]: > 100 µM
TGI [8]: > 100 µM
GI50 [9]: > 100 µM
TGI [9]: > 100 µM

CCOC(=O)c1oc2c(OC)ccc3c2c1CCC3
TGI [1]: > 100 µM
TGI [2]: > 100 µM
TGI [4]: > 100 µM
TGI [5]: > 100 µM
TGI [6]: > 100 µM
TGI [10]: > 100 µM
TGI [7]: > 100 µM
TGI [8]: > 100 µM

O=C1/C(=C/c2cccnc2)SC(=S)N1Cc1ccco1
TGI [1]: > 48.9 µM
TGI [2]: > 27.2 µM
TGI [3]: > 36.6 µM
TGI [4]: > 82.3 µM
TGI [5]: 14.5 µM
TGI [6]: > 42.2 µM
TGI [7]: > 48.5 µM
TGI [8]: 30.6 µM
TGI [9]: > 22.1 µM

CC1CC(C[N+](=O)[O-])CC2(C1)OCCO2 (configuration not stated)
TGI [1]: > 100 µM
TGI [2]: > 100 µM
TGI [4]: > 100 µM
TGI [5]: > 100 µM
TGI [6]: > 100 µM
TGI [10]: > 100 µM
TGI [7]: > 100 µM
TGI [8]: > 100 µM

CCCCC(C(=O)C(=O)Nc1ccc(C)cc1C)C(=O)C(C)C (configuration not stated)
TGI [1]: > 100 µM
TGI [2]: > 100 µM
TGI [4]: > 100 µM
TGI [7]: > 100 µM
TGI [8]: > 100 µM

CC(=O)OCCOCn1c2ccccc2c2c3c(c4c5ccccc5n(COCCOC(C)=O)c4c21)C(=O)N(Cc1ccccc1)C3=O
TGI [1]: > 100 µM
TGI [2]: > 100 µM
TGI [4]: > 100 µM
TGI [5]: > 100 µM
TGI [6]: > 100 µM
TGI [7]: > 100 µM
TGI [8]: > 100 µM

COc1cc(/C=C/C(=O)c2cccc3ccccc23)cc(OC)c1OC
TGI [1]: 24.4 µM
TGI [2]: 12.4 µM
TGI [4]: 21.3 µM
TGI [5]: 7.27 µM
TGI [10]: 73.2 µM
TGI [7]: 4.58 µM
TGI [8]: 18.8 µM

O=C1C=CC2(CCCCCCC2=O)CC1 (configuration not stated)
TGI [1]: > 100 µM
TGI [4]: > 100 µM
TGI [5]: > 100 µM
TGI [6]: > 100 µM
TGI [10]: > 100 µM
TGI [7]: > 100 µM
TGI [8]: > 100 µM

CC(=O)OC1C[C@H]2C(OC(=O)c3ccccc3)C3C4(OC(C)=O)COC4C[C@H](OC(C)=O)[C@@]3(C)C(OC(C)=O)[C@H](OC(C)=O)C(=C1C)C2(C)C (some centres not stated)
TGI [1]: > 100 µM
TGI [2]: 97.8 µM
TGI [4]: > 100 µM
TGI [5]: > 100 µM
TGI [6]: > 100 µM
TGI [7]: > 100 µM

O/N=C1/CCCC/C1=C/C=C/c1ccccc1
TGI [1]: 72.5 µM
TGI [2]: 36.6 µM
TGI [4]: 40.8 µM
TGI [5]: 67 µM
TGI [6]: 35.4 µM
TGI [10]: > 100 µM
TGI [7]: > 100 µM
TGI [8]: 32.3 µM

O=C(NCCCCCCCCCCCCNC(=O)c1cnc2ccccc2n1)c1cnc2ccccc2n1
TGI [1]: > 100 µM
TGI [2]: > 100 µM
TGI [4]: > 100 µM
TGI [5]: > 100 µM
TGI [6]: > 100 µM
TGI [7]: > 100 µM
TGI [8]: > 100 µM

CC(=O)Nc1ccccc1-c1nc2ccccc2nc1-c1ccccc1
TGI [1]: > 100 µM
TGI [2]: > 100 µM
TGI [4]: > 100 µM
TGI [5]: > 100 µM
TGI [6]: > 100 µM
TGI [10]: > 100 µM
TGI [7]: > 100 µM
TGI [8]: > 100 µM

O=C1c2c(O)cccc2C(C(=O)CCCCCC(=O)C2c3cccc(O)c3C(=O)c3c(O)cccc32)c2cccc(O)c21
GI50 [1]: 9.48 µM
TGI [1]: 5.71 µM and 16.6 µM
GI50 [2]: 1.83 µM
TGI [2]: 3.61 µM and 6.64 µM
GI50 [4]: 2.22 µM
TGI [4]: 5.26 µM and 9.46 µM
GI50 [5]: 2.05 µM
TGI [5]: 25 µM and 13.6 µM
GI50 [6]: 7.8 µM
TGI [6]: 25 µM and 15.5 µM
TGI [10]: 4.33 µM
GI50 [7]: 6.8 µM
TGI [7]: 8.5 µM and 15.6 µM
GI50 [8]: 2.5 µM
TGI [8]: 3.11 µM and 8.21 µM

O=S(=O)(C1=CC(S(=O)(=O)c2ccccc2)COC1)c1ccccc1 (configuration not stated)
TGI [1]: > 100 µM
TGI [2]: > 100 µM
TGI [4]: > 100 µM
TGI [5]: > 100 µM
TGI [6]: > 100 µM
TGI [10]: > 100 µM
TGI [7]: > 100 µM
TGI [8]: > 100 µM

Cc1ccccc1/C=C/c1csnn1
TGI [1]: > 100 µM
TGI [2]: > 100 µM
TGI [4]: > 100 µM
TGI [5]: > 100 µM
TGI [6]: > 100 µM
TGI [10]: > 100 µM
TGI [7]: > 100 µM
TGI [8]: > 100 µM

COc1ccc(C(c2ccccc2C(=O)O)c2ccc(OC)c3ccccc23)c2ccccc12
TGI [1]: 23.5 µM
TGI [4]: 16.4 µM
TGI [5]: > 100 µM
TGI [6]: 30.2 µM
TGI [7]: 34.8 µM
TGI [8]: 26.6 µM

O=C(CCC(=O)Nc1ccccc1C(F)(F)F)N/N=C1\C(=N\NC(=O)CCC(=O)Nc2ccccc2C(F)(F)F)C(c2ccc3c(c2)OCO3)Oc2ccccc21 (configuration not stated)
TGI [1]: > 100 µM
TGI [2]: > 100 µM
TGI [4]: > 100 µM
TGI [5]: 66.3 µM
TGI [6]: > 100 µM
TGI [10]: > 100 µM
TGI [7]: > 100 µM
TGI [8]: 68.5 µM
